We go through three compounds from US20140373438A1, “Method for Thinning Fruit” (BAYER CROPSCIENCE AG, priority 2001, published 2014).

Each structure is given as a SMILES string. Like-named read-outs stand apart in the source and are kept apart here.

Data set [1] relates to young plant organs (leaves and fruits). The following applies: applied, preferably sprayed, together with the thinning formulations.
Data set [2] relates to "Golden Delicious" apple variety. The following applies: 7 days post-flowering, standard 98 g, cited from earlier work.
Data set [3] concerns apple varieties. The experiment in a line: Plant tolerance by visual scoring in thinning experiments. It is filed as in vivo. The settings on record: application rates 500 mg/l and 700 mg/l. Here is the method:
According to visual scoring, formulations comprising […] metamitron show no or only minimal damage when used in thinning experiments on a wide range of apple varieties, while formulations comprising 700 mg/l metamitron cause minimal to clearly discernable damage under identical conditions.

Data set [4] relates to plants. The settings on record: use for fruit thinning, J. Amer. Soc. Hort. Sci. 115(1): 14-19 (1990); cited from earlier work.

As to `O=C[O-].O=C[O-].[Ca+2]` [calcium formate], the plant intolerance symptoms result in data set [1] was “plant intolerance symptoms were not observed”.

For `Cc1nnc(-c2ccccc2)c(=O)n1N` [metamitron], the figures for the fruit weight in data set [2] (application rate 500 mg/l) and in data set [2] (application rate 700 mg/l) were 150 g and 180 g, respectively. In addition, in data set [3], the “plant damage at the application rates of Guzewski” value is reported as “plant damage (foliar necroses) can be observed”.

In the case of `CSc1nnc(C(C)(C)C)c(=O)n1N` [metribuzin], the plant tolerance entry in data set [4] is given as “unsatisfactory”.
